Read-outs that look alike come from different tables or passages of the source.
Key:
[1] = target: human emopamil binding protein and human 7-dehydrocholesterol reductase co-expressing cell membrane (Homo sapiens (Human), UniProt Q15125); assay: hEBP-DHCR7 radioligand filtration binding assay with [3H]-Compound 118A*; settings: radioligand [3H]-Compound 118A*; HEK293 membrane co-expressing hEBP and DHCR7
Method: Membrane Preparation: human emopamil binding protein and human 7-dehydrocholesterol reductase co-expressing cells were generated by transient transfecting host human embryonic kidney (HEK) 293 cells with 2 DNA constructs containing each protein's coding sequence. Cells were suspension cultured at 37° C. with 5% CO2 in […] 293 Expression Medium (Thermofisher). Whole cell membrane was prepared by harvesting the cell pellet, adding cold membrane buffer (50 mM Tris, pH7.5, 1× Roche COMPLETE EDTA-free protease inhibitor cocktail) 10 times volume of the cell pellets weight, lysing cell pellet on ice by using Dounce homogenizer, spinning at 200 g 4° C. for 15 min, collecting supernatant and spinning again at 25000 g 4° C. for 50 min, transferring pellet to Dounce homogenizer, re-suspending pellet by homogenizing in membrane buffer on ice to reach ˜25 mg/mL, then keeping whole cell membrane aliquots at −80° C.
Compounds were prepared in a 96-well U bottom plate using an Echo550 machine and 10 mM compound DMSO stock solution, followed by an 8-dose 5-fold serial dilutions protocol with final testing compound concentration ranging from 0.06 to 5000 nM, with DMSO back fill to 100 nL/well and n=2. […] The UniFilter-96 GF/B plates were pre-treated by adding 50 μl/well of 0.3% (v/v) PEI to UniFilter-96 GF/B plates. The plates were sealed and incubated at 4° C. for 3 hrs. Then, the plates were washed with ice-cold assay buffer 3 times. The radioligand binding assay was prepared by adding assay buffer diluted hEBP-DHCR7 membrane at 66.7 μg/ml x 150 μl/well into the 96-well compound plate to reach 10 μg membrane per well. Then, the assay buffer diluted [3H]-Compound 118A* was added at 25 nM×50 μl/well. Following this, the plate was centrifuged at 1000 rpm for 30 secs. The plate was then sealed and agitated at 600 rpm at 22° C. for 5 min, and then incubated at 22° C. for 3 hrs. The incubation was stopped by transferring the binding solution to the pre-treated UniFilter-96 GF/B plate, vacuum filtrated, and then washed four times with ice-cold assay buffer. Following this, the plates were dried at 37° C. for 45 min. The plates were then sealed at the bottom. 40 μl/well of scintillation cocktail was added to the plates. A MicroBeta2 microplate counter was then used to read the plate and analyze the data. For reference and test compounds, the results are expressed as % Inhibition, using the normalization equation: N=100-100×(U−C2)/(C1−C2), where U is the unknown value, C1 is the average of high controls, and C2 is the average value of low controls. The IC50 was determined by fitting percentage of inhibition as a function of compound concentrations with Hill equation using XLfit. Results are expressed as hEBP-DHCR7 Ki (uM) in Table 4. Ki was calculated as described above.

[2] = test system: zymostenol accumulation in EpiSC-derived OPCs (EBP); assay: GC/MS-based sterol profiling, zymostenol accumulation; assay type: cell-based, mouse; settings: 8 doses from 0.15 nM to 333 nM, read-out: mZymo GCMS EC50
Method: (§1) To assess effects of treatments on OPCs, all treatments were assayed in two or more independent platings of epiblast stem cell-derived OPCs (EpiSC). EpiSC-derived OPCs were obtained using in vitro differentiation protocols and culture conditions described previously (Najm et al, 2011, Nature Methods). OPCs were expanded and frozen down in aliquots. OPCs were thawed into growth conditions for at least one passage before use in further assays.
Sterols were monitored using a modified Folch wash protocol (Hubler et al, 2018, Nature). EpiSC-derived OPCs were plated at 100,000 cells per well in PO— and laminin-coated 96-well plates in N2B27 media without growth factors. After 24 hours, cells were rinsed with saline and plates were frozen. Cholesterol-d7 standard was then added to each well before drying under nitrogen stream and derivatization with 55 μl of bis(trimethylsilyl) trifluoroacetamide. After derivatization, 2 μl were analyzed by gas chromatography/mass spectrometry using an Agilent 5973 Network Mass Selective Detector equipped with a 6890 gas chromatograph system and a HP-5MS capillary column (30 m x 0.25 mm×[…]). Samples were analyzed in full scan mode using electron impact ionization; ion fragment peaks were integrated to calculate sterol abundance, and quantitation was relative to cholesterol-d7. The following ion fragments were used to quantitate each metabolite: cholesterol-d7 (465), FF-Mas (482), cholesterol (368), zymostenol (458), zymosterol (456), Desmosterol (456, 343), 7-dehydrocholesterol (456, 325), lanosterol (393), lathosterol (458), 14-dehydrozymostenol (456, 351). […] All standards were obtained from Avanti Polar Lipids unless otherwise indicated. Calibration curves were generated by injecting varying concentrations of sterol standards and maintaining a fixed amount of cholesterol-D7. For normalized zymostenol accumulation results, the total amount of zymostenol measured after drug treatment was divided by the total amount of zymostenol accumulated after 24 hr treatment with 100 nM positive control reference.

EpiSC-derived OPCs = assay: In vitro phenotypic screening of OPCs, MBP high-content imaging; assay type: cell-based, mouse; settings: percentage of MBP+ oligodendrocytes, 3 days, 0.5 nM to 1000 nM, read-out: mOPC EC50
Method: as §1
EpiSC-derived OPCs were grown and expanded in poly-L-ornithine (PO) and laminin-coated flasks in N2B27 media (DMEM/F12 (Gibco), N2-MAX (R&D Systems), B-27 (ThermoFisher), and GlutaMax (Gibco)) supplemented with FGF2 ([…], R&D systems, 233-FB-025) and PDGF-AA ([…], R&D systems, 233-AA-050) before harvesting for experiments. The cells were seeded onto poly-L-ornithine or poly-D-lysine coated CellCarrier Ultra plates (PerkinElmer) coated with laminin (Sigma, L2020) at a density of 150,000/cm^2 in N2B27 media without growth factors. For dose-response testing, a 1000× compound stock in dimethyl sulphoxide (DMSO) was added to assay plates, resulting in 8-point dose curves with final concentrations between 1000 nM and 0.5 nM. Positive controls and DMSO vehicle controls were included in each assay plate. Cells were incubated under standard conditions (37° C., 5% CO2) for 3 days and fixed with 4% paraformaldehyde (PFA) in phosphate buffered saline (PBS) for 20 min. Fixed plates were washed with PBS, permeabilized with 0.1% Triton X-100, and blocked with 10% donkey serum (v/v) in PBS for 40 min. Then, cells were labelled with MBP antibodies (Abcam, ab7349; 1:200) for 2 h at room temperature, washed with PBS, and stained with Alexa Fluor conjugated secondary antibodies (1:500) for 45 min. Nuclei were visualized by DAPI staining (Sigma; 1 μg/ml), followed by further PBS washes.
Cells and cell culture plates were imaged on the Operetta High Content Imaging and Analysis system (PerkinElmer). Analysis (PerkinElmer Harmony and Columbus software) began by identifying intact nuclei stained by DAPI. The peri-nuclear region of each cell was then cross-referenced with the mature myelin protein (MBP) stain to identify oligodendrocyte nuclei, and from this the percentage of oligodendrocytes was calculated. EC50 values were calculated using The Levenberg-Marquardt algorithm to fit a Hill equation to dose-response data (0.5 nM to 1000 nM).

Chain of human emopamil binding protein and human 7-dehydrocholesterol reductase co-expressing cell membrane (Q15125 whole entry): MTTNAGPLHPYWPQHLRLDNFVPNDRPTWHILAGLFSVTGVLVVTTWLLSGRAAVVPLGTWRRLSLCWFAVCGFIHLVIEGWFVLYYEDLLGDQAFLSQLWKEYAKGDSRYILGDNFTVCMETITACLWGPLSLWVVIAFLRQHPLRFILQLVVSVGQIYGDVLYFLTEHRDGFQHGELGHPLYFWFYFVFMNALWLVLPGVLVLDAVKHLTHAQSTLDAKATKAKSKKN

SMILES | Ki [1] [nM] | EC50 ([2]; 24 hours) [nM] | EC50 (EpiSC-derived OPCs) [nM] | EC50 ([2]; Mus musculus, 24 h) [nM] | EC50 (EpiSC-derived OPCs; Mus musculus, 72 h) [nM]
C[C@@H](Cc1ccc([C@H]2CC[C@](C)(O)CC2)c(Cl)c1)CN1CCC2(C1)CS(=O)(=O)C2 (mixture of isomers) [Compound 123B, 6-((S)-3-(3-Chloro-4-((1r,4S)-4-hydroxy-4-methylcyclohexyl)phenyl)-2-methylpropyl)-2-thia-6-azaspiro[3.4]octane 2,2-dioxide, and 6-((R)-3-(3-chloro-4-((1r,4R)-4-hydroxy-4-methylcyclohexyl)phenyl)-2-methylpropyl)-2-thia-6-azaspiro[3.4]octane 2,2-dioxide] | 11 | 2.4 | 35 |  | 
CC(Cc1ccc(C2CC2(C)C)cc1)CN1CCC2(C1)CS(=O)(=O)C2 (racemic) [Compound 102] | 8.31 |  |  | 2.5 | 20
CCC(C)(C)c1ccc(CCC(C)N2CCC3(C2)CS(=O)(=O)C3)cc1 (racemic) [Compound 105, 6-(4-(4-(tert-Pentyl)phenyl)butan-2-yl)-2-thia-6-azaspiro[3.4]octane 2,2-dioxide] | 12.9 |  |  | 66 | 260
CC(Cc1ccc(C2CC2)cc1)CN1CCC2(C1)CS(=O)(=O)C2 (racemic) [Compound 108, 6-(3-(4-Cyclopropylphenyl)-2-methylpropyl)-2-thia-6-azaspiro[3.4]octane 2,2-dioxide] | 9.72 |  |  | 5.5 | 7.5
CCC(C)(C)c1ccc(CC(C)CN2CCC3(CC2)CS(=O)(=O)C3)cc1 (racemic) [Compound 110, 7-(2-Methyl-3-(4-(tert-pentyl)phenyl)propyl)-2-thia-7-azaspiro[3.5]nonane 2,2-dioxide] | 8.44 |  |  | 22 | 30
CC(Cc1ccc(C2(C)CC2)cc1)CN1CCC2(C1)CS(=O)(=O)C2 (racemic) [Compound 111A, 6-(2-Methyl-3-(4-(1-methylcyclopropyl)phenyl)propyl)-2-thia-6-azaspiro[3.4]octane 2,2-dioxide] | 8.57 |  |  | 1.3 | 20
O=S1(=O)CC2(CCN(CCOc3cnc([C@H]4CCC[C@H](C(F)(F)F)C4)nc3)CC2)C1 (relative stereo) [Compound 248A, 7-(2-((2-((trans)-3-(Trifluoromethyl)cyclohexyl)pyrimidin-5-yl)oxy)ethyl)-2-thia-7-azaspiro[3.5]nonane 2,2-dioxide] | 14.9 |  |  | 24.4 | 94.8
O=S1(=O)CC2(CCN(CCOc3cnc([C@H]4CCC[C@@H](C(F)(F)F)C4)nc3)CC2)C1 (relative stereo) [Compound 248B, 7-(2-((2-((cis)-3-(trifluoromethyl)cyclohexyl)pyrimidin-5-yl)oxy)ethyl)-2-thia-7-azaspiro[3.5]nonane 2,2-dioxide] | 31.6 |  |  | 25.6 | 74.1
C[C@H](Cc1ccc(C2CCC2)cc1)CN1CCC2(C1)CS(=O)(=O)C2 (single isomer, unassigned) [109B*] | 6.54 |  |  | 0.4 | 0.55
C[C@@H](Cc1ccc(C2CCC2)cc1)CN1CCC2(C1)CS(=O)(=O)C2 (single isomer, unassigned) [109C*] | 5.14 |  |  | 2.1 | 3
C[C@H](CN1CCC2(C1)CS(=O)(=O)C2)Oc1ccc(C(F)(F)F)cc1 (single isomer, unassigned) [115A*] | 18.9 |  |  | 8.6 | 42
C[C@@H](CN1CCC2(C1)CS(=O)(=O)C2)Oc1ccc(C(F)(F)F)cc1 (single isomer, unassigned) [115B*] | 13.5 |  |  | 15 | 29
C[C@H](Cc1ccc(C2CCC(F)(F)CC2)c(Cl)c1)CN1CCC2(C1)CS(=O)(=O)C2 (single isomer, unassigned) [117B*] | 9.86 |  |  | 0.35 | 0.46
C[C@H](Cc1ccc(C(F)(F)F)nc1)CN1CCC2(C1)CS(=O)(=O)C2 (single isomer, unassigned) [118B*] | 50.5 |  |  | 54 | 140
C[C@@H](Cc1ccc(OC(F)(F)F)cc1)CN1CCC2(C1)CS(=O)(=O)C2 (single isomer, unassigned) [119A*] | 7.27 |  |  | 0.52 | 0.72
C[C@H](Cc1ccc(OC(F)(F)F)cc1)CN1CCC2(C1)CS(=O)(=O)C2 (single isomer, unassigned) [119B*] | 10.5 |  |  | 4 | 2.2
C[C@@H](Cc1ccc(C(F)(F)F)cn1)CN1CCC2(C1)CS(=O)(=O)C2 (single isomer, unassigned) [121A*] | 115 |  |  | 6.1 | 23
C[C@H](Cc1ccc(C(F)(F)F)cn1)CN1CCC2(C1)CS(=O)(=O)C2 (single isomer, unassigned) [121B*] | 140 |  |  | 150 | 260
CC(Cc1ccc(F)c(F)c1)CN1CCC2(CC1)CS(=O)(=O)C2 (single isomer, unassigned) [212A*, 7-(3-(3,4-Difluorophenyl)-2-methylpropyl)-2-thia-7-azaspiro[3.5]nonane 2,2-dioxide] | 15.6 |  |  | 2.36 | 4.7

— patent publication US20240400579A1, “SPIROCYCLIC MODULATORS OF CHOLESTEROL BIOSYNTHESIS AND THEIR USE FOR PROMOTING REMYELINATION” (GENENTECH, INC., priority 2021, published 2024)
